Laboratory results as given in patent US9951039B2, “Pyrimidines for treatment of bacterial infections” (The Hong Kong Polytechnic University, priority 2016, dated 2018).
Values after ≈ are worked out from the molar mass of the structure shown. Read-outs that look alike come from different tables or passages of the source.

Legend:
E. coli strain ATCC25922 = assay: MIC, broth microdilution antimicrobial susceptibility test (CLSI); assay type: cell-based; settings: E. coli ATCC 25922, growth inhibited by ≥90%, 18 h; for MIC: Escherichia coli, ATCC25922, read-out: MIC^c: Minimum inhibitory concentration against E. coli
Source text: (§1) This example illustrates the evaluation of 2,4,6-trisubstituted pyrimidines 14 for their antimicrobial activities against the Gram positive S. aureus strain ATCC29213 and the Gram negative E. coli strain ATCC25922 by measuring their MIC, which is the lowest concentration of an antimicrobial agent that prevents visible growth of a microorganism in a broth dilution susceptibility test according to the standard method approved by the Clinical and Laboratory Standards Institute (CLSI) guidelines.^21
(§2) Procedure of Antimicrobial susceptibility test: The MIC value of compounds was measured in the antimicrobial susceptibility test using the broth microdilution procedure in accordance with the CLSI guidelines.^21 Cation-adjusted Mueller Hinton broth (CA-MHB) was used for all the S. aureus strains in the assay. Cells in exponential phase of growth were diluted to approximately 5×10^5 cfu/mL. Stock solutions of each compound were freshly dissolved in dimethyl sulfoxide (DMSO). Then, serial dilutions of each compound in CA-MHB medium were added into 96-well microplate. The final percentage of DMSO in the assay was 1%. Control experiments were performed with 1% DMSO instead of the compound solution. After being incubated at 37° C. for 18 h, OD600 value of cells was measured on a microplate reader and the percentage of bacterial cell inhibition with respect to controls was calculated. The MIC value was defined as the lowest compound concentration at which the growth of bacteria was inhibited by ≥90%. Three independent assays were performed for each compound.

[1] = system: S. aureus strain ATCC29213; assay: as above; assay type: cell-based; settings: for MIC^c/MIC^b: Selectivity index: E. coli ATCC 25922 MIC over S. aureus 29213 MIC; for antibacterial activity in words (SAR analysis): MIC screening, S. aureus; for MIC: Staphylococcus aureus
Source text: as §1, §2

[2] = S. aureus 29213, growth inhibited by ≥90%, 18 h
[3] = ATCC29213, S. aureus 29213, growth inhibited by ≥90%, 18 h, read-out: MIC^b: Minimum inhibitory concentration against S. aureus
[4] = S. aureus ATCC29213, read-out: MIC against S. aureus

MIC^c: Minimum inhibitory concentration against E. coli (E. coli strain ATCC25922) | MIC^b: Minimum inhibitory concentration against S. aureus [1, 2] | MIC (E. coli strain ATCC25922) | MIC [1, 3] | MIC [1, 4] | SMILES | MIC^c/MIC^b: Selectivity index [1] | antibacterial activity in words (SAR analysis) [1]
>125 µM | 16 µM (≈ 8.36 µg/mL) |  |  |  | CCC(CC)c1cc(CCN2CCCN(Cc3ccc(Br)cc3)CC2)nc(-c2ccncc2)n1 [Compound 14av_amine08] | >7 | 
>125 µM | 13 µM (≈ 6.22 µg/mL) |  |  |  | CCC(CC)c1cc(CCN2CCCN(Cc3ccc(Cl)cc3)CC2)nc(-c2ccncc2)n1 [Compound 14av_amine13] | >9 | 
>125 µM | 16 µM (≈ 8.19 µg/mL) |  |  |  | CCC(CC)c1cc(CCN2CCCN(Cc3cccc(C(F)(F)F)c3)CC2)nc(-c2ccncc2)n1 [Compound 14av_amine17] | >7 | 
>125 µM | 10 µM (≈ 4.86 µg/mL) |  |  |  | CCCCCc1cc(CCN2CCCN(Cc3ccc(C(C)C)cc3)CC2)nc(-c2ccncc2)n1 [Compound 14cv_amine06] | >12 | 
>125 µM | 10 µM (≈ 5.12 µg/mL) |  |  |  | CCCCCc1cc(CCN2CCCN(Cc3ccc(C(F)(F)F)cc3)CC2)nc(-c2ccncc2)n1 [Compound 14cv_amine16] | >12 | poor antibacterial activity
 |  | > 125 µM | 5 µM (≈ 2.53 µg/mL) | 5 to 8 µM (≈ 2.53 to 4.05 µg/mL) | CC(C)(C)c1ccc(CN2CCCN(CCc3cc(-c4ccccc4)nc(-c4ccncc4)n3)CC2)cc1 [Compound 14dv_amine07, 1-(4-(tert-butyl)benzyl)-4-(2-(6-phenyl-2-(pyridin-4-yl)pyrimidin-4-yl)ethyl)-1,4-diazepane] | >25 | 
 |  | > 125 µM | 5 µM (≈ 2.64 µg/mL) | 5 to 8 µM (≈ 2.64 to 4.23 µg/mL) | Brc1ccc(CN2CCCN(CCc3cc(-c4ccccc4)nc(-c4ccncc4)n3)CC2)cc1 [Compound 14dv_amine08, 1-(4-bromobenzyl)-4-(2-(6-phenyl-2-(pyridin-4-yl)pyrimidin-4-yl)ethyl)-1,4-diazepane] | >25 | 
>125 µM | 10 µM (≈ 4.68 µg/mL) |  |  |  | Fc1cccc(CN2CCCN(CCc3cc(-c4ccccc4)nc(-c4ccncc4)n3)CC2)c1 [Compound 14dv_amine10] | >12 | 
>125 µM | 10 µM (≈ 4.86 µg/mL) |  |  |  | Fc1ccc(CN2CCCN(CCc3cc(-c4ccccc4)nc(-c4ccncc4)n3)CC2)cc1F [Compound 14dv_amine12] | >12 | 
 |  | > 125 µM | 5 µM (≈ 2.66 µg/mL) | 5 to 8 µM (≈ 2.66 to 4.25 µg/mL) | FC(F)(F)c1ccc(CCN2CCCN(CCc3cc(-c4ccccc4)nc(-c4ccncc4)n3)CC2)cc1 [Compound 14dv_amine20, 1-(2-(6-phenyl-2-(pyridin-4-yl)pyrimidin-4-yl)ethyl)-4-(4-(trifluoromethyl)phenethyl)-1,4-diazepane] | >25 | 

The next lines start with the compound.

SMILES | MIC^c: Minimum inhibitory concentration against E. coli (E. coli strain ATCC25922) | MIC^b: Minimum inhibitory concentration against S. aureus [1, 2] | MIC (E. coli strain ATCC25922) | MIC [1, 3] | MIC [1, 4] | MIC^c/MIC^b: Selectivity index [1] | antibacterial activity in words (SAR analysis) [1]
CCC(CC)c1cc(CCN2CCCN(Cc3ccc(C(C)C)cc3)CC2)nc(-c2ccncc2)n1 [Compound 14av_amine06] | >125 µM | 16 µM (≈ 7.77 µg/mL) |  |  |  | >7 | 
CCC(CC)c1cc(CCN2CCCN(Cc3ccc(C(C)(C)C)cc3)CC2)nc(-c2ccncc2)n1 [Compound 14av_amine07] | >125 µM | 16 µM (≈ 8 µg/mL) |  |  |  | >7 | 
CCC(CC)c1cc(CCN2CCCN(Cc3ccccc3C(F)(F)F)CC2)nc(-c2ccncc2)n1 [Compound 14av_amine18] | >125 µM | 16 µM (≈ 8.19 µg/mL) |  |  |  | >7 | 
CCC(CC)c1cc(CCN2CCCN(C(=O)c3ccc(C(F)(F)F)cc3)CC2)nc(-c2ccncc2)n1 [Compound 14av_amine19] |  |  |  |  |  |  | poor antibacterial activity
CCC(CC)c1cc(CCN2CCCN(CCc3ccc(C(F)(F)F)cc3)CC2)nc(-c2ccncc2)n1 [Compound 14av_amine20, 1-(2-(6-(pentan-3-yl)-2-(pyridin-4-yl)pyrimidin-4-yl)ethyl)-4-(4-(trifluoromethyl)phenethyl)-1,4-diazepane] |  |  | > 125 µM | 8 µM (≈ 4.21 µg/mL) | 5 to 8 µM (≈ 2.63 to 4.21 µg/mL) | >15 | low MIC value
CCC(CC)c1cc(CCN2CCN(Cc3ccc(C(F)(F)F)cc3)CC2)nc(-c2ccncc2)n1 [Compound 14av_amine24] | >125 µM | 12 µM (≈ 5.97 µg/mL) |  |  |  | >10 | poor antibacterial activity
CCC(CC)c1cc(CCN2CCN(Cc3cccc(C(F)(F)F)c3)CC2)nc(-c2ccncc2)n1 [Compound 14av_amine28] | >125 µM | 10 µM (≈ 4.98 µg/mL) |  |  |  | >12 | 
CCC(CC)c1cc(CCN2CCCN(Cc3ccc(C(F)(F)F)cc3)CC2)nc(C)n1 [Compound 14aw_amine16] |  |  |  |  |  |  | weak antibacterial activity
CCC(CC)c1cc(CCN2CCCN(Cc3ccc(C(F)(F)F)cc3)CC2)nc(-c2ccccc2)n1 [Compound 14ax_amine16] |  |  |  |  |  |  | weak antibacterial activity
CCC(CC)c1cc(CCN2CCCN(Cc3ccc(C(F)(F)F)cc3)CC2)nc(-c2cccnc2)n1 [Compound 14ay_amine16] |  |  |  |  |  |  | weak antibacterial activity
CCC(CC)c1cc(CCN2CCCN(Cc3ccc(C(F)(F)F)cc3)CC2)nc(-c2ccccn2)n1 [Compound 14az_amine16] |  |  |  |  |  |  | weak antibacterial activity
CC(C)c1cc(CCN2CCCN(Cc3ccc(C(F)(F)F)cc3)CC2)nc(-c2ccncc2)n1 [Compound 14bv_amine16] |  |  |  |  |  |  | poor antibacterial activity
